The text below walks through data of patent US20060154903A1, “Betulinol derivatives as anti-cancer agents” (priority 2004, published 2006).

Structures are written as SMILES. Like-named read-outs stand apart in the source and are kept apart here.

Series [1] concerns carcinoma cell line CO-115 of the large intestine. As to conditions: cytotoxic activity; cited from earlier work.
Series [2] has as its system human prostate cancer LNCaP cell line. The experiment in a line: MTT cytotoxicity assay, LNCaP. As to conditions: LNCaP; for inhibition at 100 µM / inhibition at 10 µM / inhibition at 1 µM: Homo sapiens, read-out: Growth Inhibition %; for inhibition at 100 µM: 1 × 10^−4 M; for inhibition at 10 µM: 1 × 10^−5 M; for inhibition at 1 µM: 1 × 10^−6 M. In kind it is cell-based. On the procedure: The human prostate cancer LNCaP, PC-3, and DU-145 cell lines, as well as human fibroblast cell line, were obtained from the American Type Culture Collection (“ATCC”) and maintained in RPMI-1640, F-12k, and MEM mediums, respectively, supplemented with 10% FBS. Cell lines were maintained at 37° C. under a humidified atmosphere and 5% CO2 for testing of the cytotoxicity of betulinol derivatives. The cytotoxicity assay was performed using MTT assay according to the instructions of ATCC protocol. Cells 1×10^5 in 0.1 ml/well were plated in 96-well culture plates (Costar) and incubated with a different dilution of betulinol derivatives for 24, 48, and 72 hours. Ten μl of 3-[4,5-dimethylthiazol-2-yl]-2,5 diphenyl tetrazolium bromide was added into each well at the end of each incubation period. The reaction product, formazan, was dissolved in the detergent, and the absorbance was read at 540 nm (Ref).
(§1) However, these compounds were not tested on prostate cancer LNCaP cell line by NCI. […] The anti-tumor activity of the compounds was determined at three doses and the total growth inhibition kill effect as pertinent of the control at 24, 48, and 72 hours as presented in Table 11.

The next series has as its system MCF7. The experiment in a line: In vitro cytotoxicity, Breast (2), MCF7. In kind it is cell-based, human.
The subject of series [3] is different human tumor cell lines. The experiment in a line: In vitro cell toxicity test by NCI, tumor cell line panel. In kind it is cell-based. As to conditions: tested by NCI; comparison among compounds 2, 3, 4 and 5.
Another series concerns Bladder cancer cells. Particulars: 1 × 10^−4 M; Bladder (1), cell line not given.
The next series has as its system SF-268. The experiment in a line: In vitro cytotoxicity, CNS (2), SF-268. In kind it is cell-based, human.
The test system of another series is NCI-H460. The experiment in a line: In vitro cytotoxicity, Lung (2), NCI-H460. In kind it is cell-based, human.
For the next series, the system named is OVCAR-5. The experiment in a line: In vitro cytotoxicity, Ovarian (2), OVCAR-5. In kind it is cell-based, human. As for the experimental part: as §1
In another series the test system is T-47d. The experiment in a line: In vitro cytotoxicity, Breast (2), T-47d. The class given is cell-based, human.
A further series concerns RXF 393. The experiment in a line: In vitro cytotoxicity, Renal (2), RXF 393. In kind it is cell-based, human.
The subject of the next series is OVACR-3. The experiment in a line: In vitro cytotoxicity, Ovarian (2), OVACR-3. The class given is cell-based, human. On the procedure:
as §1

A further series deals with MALME-3M. The experiment in a line: In vitro cytotoxicity, Melanoma (2), MALME-3M. In kind it is cell-based, human.
Another series concerns U251. The experiment in a line: In vitro cytotoxicity, CNS (2), U251. In kind it is cell-based, human.
The next series relates to TK-10. The experiment in a line: In vitro cytotoxicity, Renal (2), TK-10. In kind it is cell-based, human. As for the experimental part: as §1
The test system of a further series is PC-3. The experiment in a line: In vitro cytotoxicity, Prostate (2), PC-3. The class given is cell-based, human.
The next series deals with CAKI-1. The experiment in a line: In vitro cytotoxicity, Renal (2), CAKI-1. In kind it is cell-based, human. As for the experimental part:
as §1

A further series concerns HOP-92. The experiment in a line: In vitro cytotoxicity, Lung (2), HOP-92. The class given is cell-based, human. As for the experimental part:
as §1

For another series, the system named is DU-145. The experiment in a line: In vitro cytotoxicity, Prostate (2), DU-145. In kind it is cell-based, human.
Another series concerns NCI-H322M. The experiment in a line: In vitro cytotoxicity, Lung (2), NCI-H322M. The class given is cell-based, human. As for the experimental part:
as §1

The test system of another series is 184B5/HER. The experiment in a line: In vitro cytotoxicity, Breast (1), 184B5/HER. The class given is cell-based. Particulars: 1 × 10^−4 M.
Series [4] can be described thus: Tolerability of solubilized drug in mice with prostate cancer cell xenografts. As to conditions: final concentration of 22% ethanol and 2×10^−3 mol per liter of betulonic acid. In kind it is in vivo.
Protocol: In the present experiment, twelve male athymic mice were utilized. Seven to ten million cells, from a prostate cancer LNCaP cell line culture, were suspended homogenously in a Matrigel basement membrane matrix and transplanted in mice as xenografts. Tumors were visible within a week. […] Control groups of mice were also injected daily with a solution containing 22% ethanol in phosphate buffer solution (PBS) containing 4% albumin for a duration of 24 days. […] The volume of the tumors was determined daily using a caliper in order to observe any change in the tumor volume (FIG. 12), calculated according to the formula π/6(1×w×h). Mice were sacrificed by CO2 asphyxiation on day 24 after the first injection (FIGS. 13A-D). Total percent increase in tumor volume in drug treated and control groups was assessed (FIG. 14).
Series [5] can be described thus: Solubility in DMSO diluted with culture medium (GC). On the procedure:
The residue was dissolved in chloroform analyzed on GC.
Ethyl ether was then evaporated. […] Concentration of drug in the above solutions was analyzed by GC and determined from the standard solubility curve.

On to `C=C(C)[C@@H]1CC[C@]2(C(=O)O)CC[C@]3(C)[C@H](CC[C@@H]4[C@@]5(C)CC[C@H](O)C(C)(C)[C@@H]5CC[C@]43C)[C@@H]12` [Compound 2, Betulinic Acid], for which, in series [1], the “LD 50” value was 0.375 mg/mL. Moreover, the “Growth Inhibition %” value was 41.0% in series [2] (24 hours, 2.5 × 10^−5 (M)); 24.6% in series [2] (24 hours, 2.5 × 10^−6 (M)); 11.72% in series [2] (24 hours, 2.5 × 10^−7 (M)); 73.3% in [2] (48 hours, 2.5 × 10^−5 (M)); 69.4% in [2] (48 hours, 2.5 × 10^−6 (M)); 62.8% in [2] (48 hours, 2.5 × 10^−7 (M)).

In the case of `C=C(C)[C@@H]1CC[C@]2(C=O)CC[C@]3(C)[C@H](CC[C@@H]4[C@@]5(C)CC[C@H](O)C(C)(C)[C@@H]5CC[C@]43C)[C@@H]12` [Compound 3, Betulin Aldehyde], the “Growth Inhibition %” value in series [2] (24 hours, 2.5 × 10^−5 (M)) is reported as 29.5%; in series [2] (24 hours, 2.5 × 10^−6 (M)) it was 11.0%; in series [2] (24 hours, 2.5 × 10^−7 (M)) it was 6.34%; in [2] (48 hours, 2.5 × 10^−5 (M)), 72.3%; in series [2] (48 hours, 2.5 × 10^−6 (M)) it was 40.9%; in series [2] (48 hours, 2.5 × 10^−7 (M)), 27.6%.

`C=C(C)C1CCC2(C=O)CCC3(C)C(CCC4C5(C)CCC(=O)C(C)(C)C5CCC43C)C12` (stereo not shown) [Compound 5, Betulon Aldehyde]: the “Percent Killed” value in the series on MCF7 (1 × 10^−4 M) is reported as 68%; with Bladder cancer cells, 29%; in the series with SF-268 (1 × 10^−4 M), 27%; in the series with NCI-H460 (1 × 10^−4 M), 89%. Moreover, the “cell growth inhibitory properties against different human tumor cell lines” value in [3] is “most effective inhibition of cell growth without selective activity”.

In the case of `C=C(C)[C@@H]1CC[C@]2(COC(C)=O)CC[C@]3(C)[C@H](CC[C@@H]4[C@@]5(C)CC[C@H](OC(C)=O)C(C)(C)[C@@H]5CC[C@]43C)[C@@H]12` [Compound 6, Betulin Diacetate], the “Percent Killed” value with MCF7 (1 × 10^−4 M), in the series with MCF7 (1 × 10^−5 M), in the series with MCF7 (1 × 10^−6 M), with MCF7 (1 × 10^−7 M), in the series on OVCAR-5 (1 × 10^−4 M) and in the series on OVCAR-5 (1 × 10^−5 M) was 100% throughout. The “Percent Killed” value worked out at 100% with OVCAR-5 (1 × 10^−6 M); 100% in the series with T-47d (1 × 10^−4 M); 100% in the series on T-47d (1 × 10^−5 M); 100% in the series on T-47d (1 × 10^−6 M); 23% with T-47d (1 × 10^−7 M); 100% with RXF 393 (1 × 10^−4 M). The “Percent Killed” value is recorded as 100% in the series with RXF 393 (1 × 10^−5 M); 100% in the series on RXF 393 (1 × 10^−6 M); 97% in the series with RXF 393 (1 × 10^−7 M); 15% in the series on RXF 393 (1 × 10^−8 M); 100% in the series on OVACR-3 (1 × 10^−4 M); 100% in the series on OVACR-3 (1 × 10^−5 M). Further, the “Percent Killed” value with OVACR-3 (1 × 10^−6 M) is 96%; in the series on MALME-3M (1 × 10^−4 M), 100%; in the series on MALME-3M (1 × 10^−5 M), 100%; in the series on MALME-3M (1 × 10^−6 M), 100%; with MALME-3M (1 × 10^−7 M) it was 100%; in the series on MALME-3M (1 × 10^−8 M) it was 98%. In addition, the “Percent Killed” value was found to be 100% with SF-268 (1 × 10^−4 M); 100% in the series on SF-268 (1 × 10^−5 M); 100% in the series with SF-268 (1 × 10^−6 M); 75% with SF-268 (1 × 10^−7 M); 15% with SF-268 (1 × 10^−8 M); 100% in the series on NCI-H460 (1 × 10^−4 M). The “Percent Killed” value in the series on NCI-H460 (1 × 10^−5 M) amounted to 100%; with NCI-H460 (1 × 10^−6 M), 100%; in the series on NCI-H460 (1 × 10^−7 M), 25%; in the series on U251 (1 × 10^−4 M), 100%; in the series on U251 (1 × 10^−5 M), 100%; in the series on U251 (1 × 10^−6 M) it was 100%. In addition, the “Percent Killed” value with U251 (1 × 10^−7 M) is reported as 100%; in the series with TK-10 (1 × 10^−4 M) it was 100%; in the series on TK-10 (1 × 10^−5 M), 100%; with TK-10 (1 × 10^−6 M), 49%; in the series with PC-3 (1 × 10^−4 M), 25%; with PC-3 (1 × 10^−5 M), 15%. Moreover, the “Percent Killed” value in the series with CAKI-1 (1 × 10^−4 M), with CAKI-1 (1 × 10^−5 M), with CAKI-1 (1 × 10^−6 M), in the series with HOP-92 (1 × 10^−4 M), with HOP-92 (1 × 10^−5 M) and in the series with HOP-92 (1 × 10^−6 M) was 100% throughout. Also, the “Percent Killed” value in the series with DU-145 (1 × 10^−4 M) was 100%; in the series on DU-145 (1 × 10^−5 M), 100%; with DU-145 (1 × 10^−6 M), 100%; with DU-145 (1 × 10^−7 M) it was 100%; in the series on DU-145 (1 × 10^−8 M), 27%; in the series on NCI-H322M (1 × 10^−4 M), 100%. The “Percent Killed” value in the series on NCI-H322M (1 × 10^−5 M) and in the series on NCI-H322M (1 × 10^−6 M) was 100% each time.

For the compound `C=C(C)C1CCC2(COC)CCC3(C)C(CCC4C5(C)CCC(OC)C(C)(C)C5CCC43C)C12` (stereo not shown) [Compound 7, Betulin Dimethyl ether (Cornelon)], the “Percent Killed” value with MCF7 (1 × 10^−4 M) is on record as 97%; in the series with Bladder cancer cells, 30%; in the series on SF-268 (1 × 10^−4 M), 100%; in the series on NCI-H460 (1 × 10^−4 M), 80%; with 184B5/HER it was “Toxic”.

As for `C=C(C)[C@@H]1CC[C@]2(CO)CC[C@]3(C)[C@H](CC[C@@H]4[C@@]5(C)CC[C@H](OC(C)=O)C(C)(C)[C@@H]5CC[C@]43C)[C@@H]12` [Compound 8, 3-Acetoxy Betulin], the “Growth Inhibition %” value is given as 12.4% in series [2] (24 hours, 2.5 × 10^−5 (M)); 10.4% in [2] (24 hours, 2.5 × 10^−6 (M)); 0% in series [2] (24 hours, 2.5 × 10^−7 (M)); 28.3% in series [2] (48 hours, 2.5 × 10^−5 (M)); 44.7% in series [2] (48 hours, 2.5 × 10^−6 (M)); 17.4% in series [2] (48 hours, 2.5 × 10^−7 (M)).

Take `C=C(C)C1CCC2(C(=O)NCCCCC(NC(=O)OC(C)(C)C)C(=O)O)CC[C@]3(C)[C@H](CC[C@@H]4[C@@]5(C)CCC(=O)C(C)(C)[C@@H]5CC[C@]43C)C12` (stereo partly shown) [Monomer-Boc]: the tolerability in mice result in series [4] is “well tolerated”. Further, in [5], the “Concentration of drug (mg/mL)” value came to 0.7 mg/mL and the “Concentration of drug (mol/L)” value was determined as 0.001 mol/L.

Take `C=C(C)C1CCC2(C(=O)NCCCCC(NC(=O)OC(C)(C)C)C(=O)OC)CC[C@]3(C)[C@H](CC[C@@H]4[C@@]5(C)CCC(=O)C(C)(C)[C@@H]5CC[C@]43C)C12` (stereo partly shown) [Monomer]: in [2] (24 h, 24 hours), the inhibition at 100 µM stood at 76.5 ± 22.6%, the inhibition at 10 µM was 19 ± 14.4% and the inhibition at 1 µM stood at 5.5 ± 7.32%. Further, in series [2] (48 h, 48 hours), the inhibition at 100 µM is roughly 80%, the inhibition at 10 µM came out at 36.8% and the inhibition at 1 µM worked out at 15 ± 11.2%. In addition, in [2] (72 h, 72 hours), the inhibition at 100 µM came out at 79.2 ± 16.5%, the inhibition at 10 µM is 40.5 ± 33.6% and the inhibition at 1 µM came to 17.2 ± 32.5%.
